The values that follow are results of earlier work, collected in patent US6521028B1, “Low hazard corrosion inhibitors and cleaning solutions using quaternary ammonium salts” (HydroChem Industrial Services, Inc., priority 1996, dated 2003).

A value given as a limit tells only on which side of the number the result lay.

Assay in data set [1]: not given
This is another data set of the same source.

For `CC(C)O` [Isopropanol, isopropanol], the “amount fatal to humans” value is at least 100 mL.
`COC(C)COC(C)CO` (stereo not drawn) [dipropylene glycol methyl ether]: the “LD50 (oral rats)” value in data set [1] is given as 5130 mg/kg.
For `NC(N)=S` [thiourea], in data set [1], the “LD50 (oral rats)” value is given as 125 mg/kg.
